pEC50, pIC50: −log10 of the molar value. Where “and” joins values, the source holds several entries; their conditions need not be identical. Identical values can stand only once. Like-named read-outs stand apart in the source and are kept apart here.
Key:
[1] = test system: T. gondii RHΔΔ TgPheRS[V262A]; assay: Tachyzoite lytic assay, V262A mutant; assay type: cell-based; settings: Toxoplasma gondii
Description: In vitro cultures of HFF cells containing mature vacuoles were scraped, passaged through 23 g blunt end needles, and filtered using 3 micron filters. Purified parasites were resuspended in 350 μL of cytomix plus[49] and combined in a BTX 4 mm gap cuvette with 30 μL of PCR amplified templates corresponding to mutations of interest and 10 μg of pSAG1:Cas9-GFP U6:sgTgPheRS^[mut] (in 20 μL, 400 μL total volume, see Supplementary Data 1 for sgRNA sequences) prior to electroporation using a BTX ETM 830 electroporator. Amplified templates for TgPheRS mutations were generated from gBlocks (Integrated DNA Technologies, Coralville, IA, USA) that contain a BclI restriction site that replaces the PAM sequence to protect the repair template from being cut by Cas9. […]
Parasite growth on HFF monolayers was monitored using a 96-well plate-based lytic assay modified from a previously described protocol. […] Plates were rinsed with water, air dried, and absorption quantified on the Cytation 3 multi-mode imager at 570 nm wavelength. % parasite growth was calculated as 100−[(OD value for infected cultures at each concentration of compound/average OD value for no compound and no parasite infection) × 100]. EC50 values were calculated based on the mean of three biological replicates with each replicate containing two technical replicates.

[2] = mouse; cited from earlier work
[3] = target: T1, recombinant wild-type TgPheRS (Toxoplasma gondii, UniProt A0A125YPN6); assay: Malachite green aminoacylation enzyme assay, wild-type TgPheRS; assay type: biochemical; settings: for Tg PheRS enzyme assay raw signal: replicates
T1 sequence (A0A125YPN6 1-525): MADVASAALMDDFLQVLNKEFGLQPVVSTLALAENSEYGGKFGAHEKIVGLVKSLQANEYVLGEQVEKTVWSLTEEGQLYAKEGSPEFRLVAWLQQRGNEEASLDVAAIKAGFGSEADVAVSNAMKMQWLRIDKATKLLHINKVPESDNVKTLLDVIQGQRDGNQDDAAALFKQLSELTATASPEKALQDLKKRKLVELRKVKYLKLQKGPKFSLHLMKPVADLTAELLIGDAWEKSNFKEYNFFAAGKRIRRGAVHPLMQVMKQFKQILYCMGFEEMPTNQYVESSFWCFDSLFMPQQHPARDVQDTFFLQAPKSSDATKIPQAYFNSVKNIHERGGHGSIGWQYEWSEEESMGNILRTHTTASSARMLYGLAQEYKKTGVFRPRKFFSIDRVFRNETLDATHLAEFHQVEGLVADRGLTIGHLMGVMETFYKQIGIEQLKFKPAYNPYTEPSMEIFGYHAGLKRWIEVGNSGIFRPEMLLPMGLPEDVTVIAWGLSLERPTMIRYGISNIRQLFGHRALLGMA
T1 sequence (S8EZ50 1-675 partner): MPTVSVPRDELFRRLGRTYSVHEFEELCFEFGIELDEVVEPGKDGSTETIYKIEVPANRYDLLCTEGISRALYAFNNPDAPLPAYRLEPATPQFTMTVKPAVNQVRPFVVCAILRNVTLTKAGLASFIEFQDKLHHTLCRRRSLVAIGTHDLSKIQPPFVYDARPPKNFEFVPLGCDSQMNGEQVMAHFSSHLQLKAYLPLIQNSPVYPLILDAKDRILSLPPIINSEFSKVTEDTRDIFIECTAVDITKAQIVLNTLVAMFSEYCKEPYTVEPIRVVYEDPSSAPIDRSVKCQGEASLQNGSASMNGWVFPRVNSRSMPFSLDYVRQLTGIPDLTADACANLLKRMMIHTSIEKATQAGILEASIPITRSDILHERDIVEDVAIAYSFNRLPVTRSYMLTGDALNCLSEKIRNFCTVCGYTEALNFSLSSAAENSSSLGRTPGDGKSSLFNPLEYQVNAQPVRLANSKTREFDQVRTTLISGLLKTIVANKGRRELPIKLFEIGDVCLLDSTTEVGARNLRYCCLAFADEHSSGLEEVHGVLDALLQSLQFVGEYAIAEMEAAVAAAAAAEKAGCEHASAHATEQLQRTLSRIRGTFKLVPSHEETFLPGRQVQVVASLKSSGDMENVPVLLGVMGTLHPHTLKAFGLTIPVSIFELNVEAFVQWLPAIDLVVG

## COc1ccc(NC(=O)N2CCCCN3[C@H](CN(C)C)[C@H](c4ccc(C#Cc5ccccc5)cc4)[C@@H]3C2)cc1 [BRD7929]
[1]; 72 h, read-out: EC50, V262A
  pEC50: 6.69
[1]; read-out: EC50 (growth restriction)
  pEC50: 6.80
[2]
  oral bioavailability: 80%
[3]
  pIC50: 7.51
[3]; BRD7929 0.000001 μM
  Tg PheRS enzyme assay raw signal: 0.2010 (2×) and 0.1986
[3]; BRD7929 0.000010 μM
  Tg PheRS enzyme assay raw signal: 0.1950 and 0.1940 and 0.1990
[3]; BRD7929 0.000100 μM
  Tg PheRS enzyme assay raw signal: 0.1980 and 0.1900 and 0.1990
[3]; BRD7929 0.001000 μM
  Tg PheRS enzyme assay raw signal: 0.1940 and 0.1790 and 0.1870
[3]; BRD7929 0.010000 μM
  Tg PheRS enzyme assay raw signal: 0.1697 and 0.1750 and 0.1724
[3]; BRD7929 0.100000 μM
  Tg PheRS enzyme assay raw signal: 0.1290 and 0.1332 and 0.1400
[3]; BRD7929 1.000000 μM
  Tg PheRS enzyme assay raw signal: 0.1100 and 0.1180 and 0.1090
[3]; BRD7929 10.000000 μM
  Tg PheRS enzyme assay raw signal: 0.0928 and 0.1144 and 0.1108
[3]; BRD7929 100.000000 μM
  Tg PheRS enzyme assay raw signal: 0.1051 and 0.0940 and 0.1066
[3]; WT, BRD7929 100.000000 μM
  enzyme assay readout (raw, malachite green, 620 nm): 0.1051 and 0.0940 and 0.1066

Source: publication PMC8786932, “Bicyclic azetidines target acute and chronic stages of Toxoplasma gondii by inhibiting parasite phenylalanyl t-RNA synthetase” (Nature Communications, 2022)
